Measured values published in patent US20250136595A1, “ACYLATED HETEROCYCLIC QUINAZOLINE DERIVATIVES AS INHIBITORS OF ERBB2” (Enliven Inc., priority 2022, published 2025).
Where a name gives a salt, the structure may show the parent alone.

Tests used:
[1] = target: Ba/F3 ERBB2 YVMA (Homo sapiens, UniProt P04626, DUP772-775, cells depend on it); experiment: Cell viability assay (CellTiter Glo) in Ba/F3 cells engineered to express ERBB2 YVMA; type: cell-based, mouse; details: Ba/F3 cells expressing human ERBB2 YVMA mutant, 72 hours, % viability, read-out: Ba/F3 ERBB2 YVMA IC50
Description: Cells were treated with compounds, and cell viability was measured as a metric of kinase inhibition.
The Ba/F3 cell line is IL-3-dependent mouse cell line derived from the C3H mouse strain. Ba/F3 cell lines were engineered to express human ERBB2 or EGFR kinases, rendering the cells IL-3 independent. The lines were generated via retroviral transduction utilizing a Moloney murine leukemia virus (MMLV) promoter, and constructs are stably integrated into the cell genome. The sequences of the ERBB2 and EGFR genes used were NCBI Reference Sequences NM_004448.3 and NM_005228.3, respectively.
Similarly, Ba/F3 cell lines engineered to express EGFR, ERBB2, or ERBB2 mutants were grown, harvested, counted and seeded at 3000 cells per well in 96-well plates for the data sets shown in Tables B3-B4. A subset of wells contained media only (low control, “LC”).
Table B1 provides the growth media and number of cells seeded per well for the each cell line.
Compounds were dissolved in DMSO and serially diluted. Serially-diluted compound or a DMSO only control (high control, “HC”) was added to the plated cells in each well. […] The final proportion of DMSO never exceeded 0.1%.
Plates were placed in a 37° C., 5% CO2 incubator for 72 hours. Plates were then removed from the incubator and equilibrated for 15 minutes at room temperature. 40 μl of CellTiter Glo reagent (Promega) was added to measure the relative level of metabolically active cells by quantifying intracellular ATP concentrations. Plates were incubated for 30 minutes at room temperature, and luminescence was measured. Percent viability was normalized to a vehicle control only using the following formula: % viability=100×(Lumsample−LumLC)/(LumHC−LumLC). Graphical curves were fitted using a nonlinear regression model with a sigmoidal dose response.

[2] = target: T1, phosphorylated ERBB2 (pERBB2) (Homo sapiens, UniProt P04626); experiment: Detection of phosphorylated ERBB2 (pERBB2) by ELISA in BT-474 cells; type: cell-based; details: four hour incubation with compound
T1 construct: endogenous in cells; host or cells: BT-474
Description: BT-474 cells were seeded into a 96-well at 2.0*10^4 cells/100 μl/well. Compounds were dissolved and serially diluted in DMSO. The compounds were then were added, mixed, and incubated for four hours at 37° C., 5% CO2. Compounds were added using four-fold dilutions at final concentrations ranging from 10 μM to 0.01 nM. Following the four hour incubation with compounds, cell lysates were prepared. Plates were centrifuged for 5 min at 3000 RPM, and supernatant was removed from each well. Cells were washed 3 times by resuspension in 150 μl PBS, followed by centrifugation and removal of the supernatant, as above. […] Cells were incubated with lysis buffer for 1 hour at 4° C., and then stored at -80° C. Enzyme-linked immunosorbent assays (ELISA) were performed to measure phosphorylated ERBB2 levels. […] The next day, plates were washed with PBS+0.05% Tween20 (PBST). 150 μl of 5% BSA blocking solution was added for 1 hour at room temperature, with shaking. Plates were washed with PBST. Cell lysates were thawed and 100 μl of lysate was added to the ELISA plate. The plates were incubated for 2 hours at room temperature, with shaking. […] Plates were incubated for 1 hour at room temperature, with shaking. Plates were then washed with PBST, and 100 μl TMB substrate solution (R&D Systems, cat #DY999) was added. Plate were incubated in the dark for 20 minutes at room temperature. 50 μl of Stop solution (R&D Systems, cat #DY994) (50 μl) was added to each well and mixed. Optical density at 450 nm was read on an EnSpire plate reader (Perkin Elmer). The remaining kinase activity by calculated using the following formula: % Relative activity=100×([…]). The low and high control values (“LC” and “HC”) were generated from lysate from wells without cells or with cells treated with 0.1% DMSO, respectively.

[3] = target: T2, phosphorylated EGFR (pEGFR) (Homo sapiens, UniProt P00533); experiment: Detection of phosphorylated EGFR (pEGFR) in EGF-stimulated A431 cells (AlphaLISA); type: cell-based; details: A431 cells (10% FBS), 4 hours incubation, EGF 30 ng/mL for 10 minutes
T2 construct: performed to measure phosphorylated EGFR levels using A431 cells; endogenous in cells; host or cells: A431
Description: Enzyme-linked immunosorbent assays (ELISA) were performed to measure phosphorylated EGFR levels using A431 cells (10% FBS). A431 (1.0*10^4 cells/40 μl/well) cells were seeded in 384 well. Compounds were dissolved in DMSO, serially diluted in DMSO and then were added, mixed, and incubated for 4 hours at 37° C., 5% CO2. Following the 4-hours incubation, cells were stimulated for 10 minutes with EGF (Invitrogen, cat #PHG0311) at a final concentration of 30 ng/mL in the incubator. The media was aspirated and cells were lysed in 10 μL lysis buffer with protease and phosphatase inhibitors (PerkinElmer, cat #ALSU-PEGFR-A50K). The plates were placed on a shaker for 5 minutes and then incubated for 30 min at 4° C. for complete lysis. The lysate was transferred to an Optiplate (Perkin Elmer, cat #6007290).
Acceptor mix (PerkinElmer, cat #ALSU-PEGFR-A50K) was prepared just before use and 5 μL was dispensed to all the wells, followed by a 1.5-2 h incubation at room temperature in dark. The donor mix (PerkinElmer, cat #ALSU-PEGFR-A50K) was prepared under low light conditions prior to use and 5 μl of donor mix was added to all the wells under subdued lighting or green filters. The plates were placed on a shaker for 5 min, sealed, and incubated overnight at room temperature in dark. Plates were read on the Envision (PerkinElmer) using standard AlphaLISA settings.
The percentage of inhibition on EGFR phosphorylation was calculated following equation: % Inhibition=100×(LumHC−LumSample)/(LumHC−LumLC). The low and high controls (LC/HC) are generated from lysate from wells with cells treated with DMSO or […] Staurosporine (BioAustralis, cat #BIA-S1086), […]. IC50 values were calculated by fitting the Curve using XLfit (v5.3.1.3), equation 201: Y=Bottom+ (Top−Bottom)/(1+10^((LogIC50−X)*HillSlope)).

T1 sequence (P04626 23-1255): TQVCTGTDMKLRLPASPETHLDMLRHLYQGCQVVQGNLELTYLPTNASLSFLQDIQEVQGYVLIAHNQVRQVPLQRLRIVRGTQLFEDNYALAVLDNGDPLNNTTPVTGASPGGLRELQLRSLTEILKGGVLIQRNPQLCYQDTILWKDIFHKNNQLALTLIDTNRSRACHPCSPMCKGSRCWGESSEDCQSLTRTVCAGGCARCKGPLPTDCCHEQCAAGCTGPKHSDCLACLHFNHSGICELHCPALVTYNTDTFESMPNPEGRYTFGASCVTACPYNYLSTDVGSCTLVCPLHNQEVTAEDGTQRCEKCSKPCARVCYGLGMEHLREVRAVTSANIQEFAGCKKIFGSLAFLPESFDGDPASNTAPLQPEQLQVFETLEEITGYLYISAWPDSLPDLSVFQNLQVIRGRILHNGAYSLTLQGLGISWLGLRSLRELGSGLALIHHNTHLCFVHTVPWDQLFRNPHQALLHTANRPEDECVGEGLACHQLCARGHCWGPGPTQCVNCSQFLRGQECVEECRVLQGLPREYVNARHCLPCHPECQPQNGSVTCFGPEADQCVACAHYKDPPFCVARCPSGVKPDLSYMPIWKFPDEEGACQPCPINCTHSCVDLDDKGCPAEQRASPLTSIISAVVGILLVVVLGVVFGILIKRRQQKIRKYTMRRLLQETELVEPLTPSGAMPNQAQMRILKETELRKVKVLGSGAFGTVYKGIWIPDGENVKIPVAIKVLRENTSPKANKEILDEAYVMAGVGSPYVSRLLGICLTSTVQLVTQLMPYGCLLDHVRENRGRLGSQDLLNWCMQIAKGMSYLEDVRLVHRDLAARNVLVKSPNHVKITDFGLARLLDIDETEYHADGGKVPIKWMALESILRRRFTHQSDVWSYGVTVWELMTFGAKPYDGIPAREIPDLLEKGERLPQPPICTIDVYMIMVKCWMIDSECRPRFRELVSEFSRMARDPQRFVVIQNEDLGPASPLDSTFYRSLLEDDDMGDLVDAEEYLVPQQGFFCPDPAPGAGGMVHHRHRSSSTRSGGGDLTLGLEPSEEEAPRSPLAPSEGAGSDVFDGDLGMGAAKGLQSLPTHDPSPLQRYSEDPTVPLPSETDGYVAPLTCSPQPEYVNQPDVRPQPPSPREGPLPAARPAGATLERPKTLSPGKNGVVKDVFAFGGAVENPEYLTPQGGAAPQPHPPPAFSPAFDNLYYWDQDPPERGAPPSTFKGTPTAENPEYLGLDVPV
T2 sequence (P00533 25-1210): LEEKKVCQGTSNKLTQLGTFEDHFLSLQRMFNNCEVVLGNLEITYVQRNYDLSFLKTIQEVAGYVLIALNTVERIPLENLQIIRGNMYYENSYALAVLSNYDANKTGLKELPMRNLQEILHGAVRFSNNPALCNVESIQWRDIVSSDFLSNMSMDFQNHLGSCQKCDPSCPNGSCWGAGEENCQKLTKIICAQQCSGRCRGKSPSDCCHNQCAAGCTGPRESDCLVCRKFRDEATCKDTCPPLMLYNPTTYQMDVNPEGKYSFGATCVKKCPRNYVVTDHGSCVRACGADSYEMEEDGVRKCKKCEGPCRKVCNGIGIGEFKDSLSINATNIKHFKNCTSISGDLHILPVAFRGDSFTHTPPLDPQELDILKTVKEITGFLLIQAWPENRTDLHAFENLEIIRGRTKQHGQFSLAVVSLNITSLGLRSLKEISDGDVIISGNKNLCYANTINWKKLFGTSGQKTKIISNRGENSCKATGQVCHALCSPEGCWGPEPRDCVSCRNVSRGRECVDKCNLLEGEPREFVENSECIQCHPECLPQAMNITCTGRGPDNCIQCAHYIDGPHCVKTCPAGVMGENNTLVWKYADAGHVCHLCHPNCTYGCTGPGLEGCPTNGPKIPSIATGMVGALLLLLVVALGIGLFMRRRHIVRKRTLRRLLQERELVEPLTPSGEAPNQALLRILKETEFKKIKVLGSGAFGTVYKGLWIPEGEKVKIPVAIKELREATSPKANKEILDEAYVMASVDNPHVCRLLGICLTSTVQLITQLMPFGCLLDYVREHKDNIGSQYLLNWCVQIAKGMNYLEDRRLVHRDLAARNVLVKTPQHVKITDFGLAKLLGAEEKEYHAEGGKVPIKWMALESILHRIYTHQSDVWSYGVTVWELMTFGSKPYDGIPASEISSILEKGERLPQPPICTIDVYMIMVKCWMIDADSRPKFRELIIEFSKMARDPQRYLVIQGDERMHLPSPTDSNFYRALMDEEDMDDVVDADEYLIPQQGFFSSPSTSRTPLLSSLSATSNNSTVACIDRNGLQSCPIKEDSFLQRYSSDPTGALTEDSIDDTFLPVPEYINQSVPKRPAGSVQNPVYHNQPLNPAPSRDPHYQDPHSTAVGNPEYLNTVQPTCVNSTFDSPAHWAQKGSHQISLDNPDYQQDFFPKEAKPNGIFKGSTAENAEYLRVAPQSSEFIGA
Ba/F3 ERBB2 YVMA, sequence (P04626 with tags, fused parts or gaps DUP772-775): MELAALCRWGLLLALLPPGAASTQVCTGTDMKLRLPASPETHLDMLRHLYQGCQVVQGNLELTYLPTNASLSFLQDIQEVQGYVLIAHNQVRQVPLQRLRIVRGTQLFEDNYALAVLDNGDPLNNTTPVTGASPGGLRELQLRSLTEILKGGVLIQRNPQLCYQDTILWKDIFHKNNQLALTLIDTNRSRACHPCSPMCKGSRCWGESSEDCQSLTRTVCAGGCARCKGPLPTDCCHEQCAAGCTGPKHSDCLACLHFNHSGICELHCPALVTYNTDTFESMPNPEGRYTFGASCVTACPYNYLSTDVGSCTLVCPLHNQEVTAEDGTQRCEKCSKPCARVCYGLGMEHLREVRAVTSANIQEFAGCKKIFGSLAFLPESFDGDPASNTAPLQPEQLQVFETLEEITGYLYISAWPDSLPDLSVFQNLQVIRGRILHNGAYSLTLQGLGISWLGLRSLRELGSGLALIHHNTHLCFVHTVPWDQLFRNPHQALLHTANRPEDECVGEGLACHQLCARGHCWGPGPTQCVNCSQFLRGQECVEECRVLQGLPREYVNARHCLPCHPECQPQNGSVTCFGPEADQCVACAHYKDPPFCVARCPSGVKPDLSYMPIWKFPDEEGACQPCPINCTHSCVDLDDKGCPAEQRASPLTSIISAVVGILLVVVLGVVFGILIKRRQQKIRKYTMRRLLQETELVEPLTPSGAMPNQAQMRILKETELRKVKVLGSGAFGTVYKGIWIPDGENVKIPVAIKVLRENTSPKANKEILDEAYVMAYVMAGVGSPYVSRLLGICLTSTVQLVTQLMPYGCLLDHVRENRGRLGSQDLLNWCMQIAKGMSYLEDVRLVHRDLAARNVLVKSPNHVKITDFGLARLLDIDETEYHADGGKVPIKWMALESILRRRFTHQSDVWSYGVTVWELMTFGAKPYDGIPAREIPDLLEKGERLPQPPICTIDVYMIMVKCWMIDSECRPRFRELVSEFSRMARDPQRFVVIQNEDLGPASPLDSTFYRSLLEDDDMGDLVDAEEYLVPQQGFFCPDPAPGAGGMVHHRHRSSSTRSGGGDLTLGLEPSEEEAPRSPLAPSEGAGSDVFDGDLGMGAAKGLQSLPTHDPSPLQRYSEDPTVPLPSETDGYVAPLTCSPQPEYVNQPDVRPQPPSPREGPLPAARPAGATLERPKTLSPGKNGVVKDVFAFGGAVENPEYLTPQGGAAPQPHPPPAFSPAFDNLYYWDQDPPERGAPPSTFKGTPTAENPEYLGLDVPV

Row | SMILES | GI50 [1] [µM] | IC50 [2] [µM] | IC50 [3] [µM]
1 | C=CC(=O)N1CCC2(CCN(c3ccc4ncnc(Nc5ccc(Oc6ccn7ncnc7c6)c(C)c5)c4n3)C2)C1 (stereo not drawn) [Compound 20, 1-(7-{4-[(3-methyl-4-{[1,2,4]triazolo[1,5-a]pyridin-7-yloxy}phenyl)amino]pyrido[3,2-d]pyrimidin-6-yl}-2,7-diazaspiro[4.4]nonan-2-yl)prop-2-en-1-one] | 0.021 | 0.0379 | > 10
2 | Cc1cc(Nc2ncnc3ccc(N4CCN(C(=O)/C=C/CN(C)C)[C@H](C)C4)nc23)ccc1Oc1ccc2c(c1)ncn2C [Compound 80, (2E)-4-(dimethylamino)-1-[(2R)-2-methyl-4-[4-({3-methyl-4-[(1-methyl-1,3-benzodiazol-5-yl)oxy]phenyl}amino)pyrido[3,2-d]pyrimidin-6-yl]piperazin-1-yl]but-2-en-1-one] | 0.0113 | 0.0288 | 2.76
3 | C=CC(=O)N1CC2CC1CN2c1ccc2ncnc(Nc3ccc(Oc4ccn5ncnc5c4)c(C)c3)c2n1 (stereo not drawn) [Compound 6, 1-(5-{4-[(3-methyl-4-{[1,2,4]triazolo[1,5-a]pyridin-7-yloxy}phenyl)amino]pyrido[3,2-d]pyrimidin-6-yl}-2,5-diazabicyclo[2.2.1]heptan-2-yl)prop-2-en-1-one] | 0.00565 | 0.0139 | 0.134
4 | CC#CC(=O)N1CCN(c2ccc3ncnc(Nc4ccc(Oc5ccn6ncnc6c5)c(C)c4)c3n2)C[C@@H]1C [Compound 22, 1-[(2S)-2-methyl-4-{4-[(3-methyl-4-{[1,2,4]triazolo[1,5-a]pyridin-7-yloxy}phenyl)amino]pyrido[3,2-d]pyrimidin-6-yl}piperazin-1-yl]but-2-yn-1-one] | 0.0349 | 0.0628 | > 10
5 | Cc1cc(Nc2ncnc3ccc(N4CCN(C(=O)/C=C/CN(C)C)[C@H](C)C4)c(F)c23)ccc1Cc1ccn2ncnc2c1 [Compound 93, (2E)-4-(dimethylamino)-1-[(2R)-4-{5-fluoro-4-[(3-methyl-4-{[1,2,4]triazolo[1,5-a]pyridin-7-ylmethyl}phenyl)amino]quinazolin-6-yl}-2-methylpiperazin-1-yl]but-2-en-1-one formate] | 0.049 | 0.0307 | > 10
6 | C=CC(=O)N1CC2CC(C1)N2c1ccc2ncnc(Nc3ccc(Oc4ccn5ncnc5c4)c(C)c3)c2n1 [Compound 5, 1-(6-{4-[(3-methyl-4-{[1,2,4]triazolo[1,5-a]pyridin-7-yloxy}phenyl)amino]pyrido[3,2-d]pyrimidin-6-yl}-3,6-diazabicyclo[3.1.1]heptan-3-yl)prop-2-en-1-one] | 0.018 | 0.017 | 0.476
7 | C=CC(=O)N1CCN(c2cc3c(Nc4ccc(Oc5ccn6ncnc6c5)c(C)c4)ncnc3cn2)CC1 [Compound 109, 1-(4-(4-((4-([1,2,4]triazolo[1,5-a]pyridin-7-yloxy)-3-methylphenyl)amino)pyrido[3,4-d]pyrimidin-6-yl)piperazin-1-yl)prop-2-en-1-one] | 0.0134 | 0.0102 | 0.839
8 | Cc1cc(Nc2ncnc3ccc(N4CCN(C(=O)/C=C/CN(C)C)[C@H](C)C4)nc23)ccc1Cc1ccn2ncnc2c1 [Compound 117, (R,E)-1-(4-(4-((4-([1,2,4]triazolo[1,5-a]pyridin-7-ylmethyl)-3-methylphenyl)amino)pyrido[3,2-d]pyrimidin-6-yl)-2-methylpiperazin-1-yl)-4-(dimethylamino)but-2-en-1-one] | 0.0251 | 0.0245 | > 10
9 | C=CC(=O)N1CCN(c2ccc3ncnc(Nc4ccc(Cc5ccn6ncnc6c5)c(C)c4)c3c2)[C@@H](C)C1 [Compound 104, (S)-1-(4-(4-((4-([1,2,4]triazolo[1,5-a]pyridin-7-ylmethyl)-3-methylphenyl)amino)quinazolin-6-yl)-3-methylpiperazin-1-yl)prop-2-en-1-one] | 0.0651 | 0.0247 | > 10
10 | C=CC(=O)N1CCC2(CC1)CN(c1ccc3ncnc(Nc4ccc(Oc5ccn6ncnc6c5)c(C)c4)c3n1)C2 [Compound 19, 1-(2-{4-[(3-methyl-4-{[1,2,4]triazolo[1,5-a]pyridin-7-yloxy}phenyl)amino]pyrido[3,2-d]pyrimidin-6-yl}-2,7-diazaspiro[3.5]nonan-7-yl)prop-2-en-1-one] | 0.176 | 0.098 | > 10
11 | C=CC(=O)N1CCN(c2ccc3ncnc(Nc4ccc(Cc5ccc6c(c5)ncn6C)c(C)c4)c3c2F)C[C@H]1C [Compound 78, 1-[(2R)-4-[5-fluoro-4-({3-methyl-4-[(1-methyl-1,3-benzodiazol-5-yl)methyl]phenyl}amino)quinazolin-6-yl]-2-methylpiperazin-1-yl]prop-2-en-1-one] | 0.0226 | 0.0704 | 5.13
12 | C=CC(=O)N1CCN(c2cc3c(Nc4ccc(OC5CCN(C(=O)C6CCCC6)CC5)c(C)c4)ncnc3cn2)CC1 [Compound 2, 1-(4-(4-((4-((1-(cyclopentanecarbonyl)piperidin-4-yl)oxy)-3-methylphenyl)amino)pyrido[3,4-d]pyrimidin-6-yl)piperazin-1-yl)prop-2-en-1-one] | 0.0203 | 0.0482 | 2.69
13 | C=CC(=O)N1CCN(c2ccc3ncnc(Nc4ccc(Cc5ccn6ncnc6c5)c(C)c4)c3n2)CC1(C)C [Compound 131, 1-(4-(4-((4-([1,2,4]triazolo[1,5-a]pyridin-7-ylmethyl)-3-methylphenyl)amino)pyrido[3,2-d]pyrimidin-6-yl)-2,2-dimethylpiperazin-1-yl)prop-2-en-1-one] | 0.02 | 0.03 | 2.39
14 | C=CC(=O)N1CCN(c2ccc3ncnc(Nc4ccc(Oc5ccn6ncnc6c5)c(C)c4)c3n2)C[C@H]1C [Compound 10, 1-[(2R)-2-methyl-4-{4-[(3-methyl-4-{[1,2,4]triazolo[1,5-a]pyridin-7-yloxy}phenyl)amino]pyrido[3,2-d]pyrimidin-6-yl}piperazin-1-yl]prop-2-en-1-one] | 0.00461 | 0.00874 | 0.294
